# Assay results as given in the supplement of paper PMC10307832.
# Key:
# Test in all cases: relative viability (nuclei count vs DMSO), 5 days (fraction); higher = more cells survive
# R406 + Olaparib = compound: COc1cc(Nc2ncc(F)c(Nc3ccc4c(n3)NC(=O)C(C)(C)O4)n2)cc(OC)c1OC [R406] + O=C(c1cc(Cc2n[nH]c(=O)c3ccccc23)ccc1F)N1CCN(C(=O)C2CC2)CC1 [Olaparib] (partner 8 µM)
# Outline: (§1)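 Lung cancer cell lines were pin-tool dosed in 1536-well plates on the day after seeding, with either a lone drug or a fixed anchor-drug dose plus five library-drug doses (not always all listed) in √10 steps. Nuclei were counted on 4× images after 5 days. Relative viability is the ratio of treated-well to vehicle-well nuclei counts, with each value a median of duplicate plates.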
# Daporinad + Palbociclib = compound: O=C(/C=C/c1cccnc1)NCCCCC1CCN(C(=O)c2ccccc2)CC1 [Daporinad] + CC(=O)c1c(C)c2cnc(Nc3ccc(N4CCNCC4)cn3)nc2n(C2CCCC2)c1=O [Palbociclib] (partner 0.5 µM)
# Outline: as §1
# Daporinad + Navitoclax = compound: O=C(/C=C/c1cccnc1)NCCCCC1CCN(C(=O)c2ccccc2)CC1 [Daporinad] + CC1(C)CCC(c2ccc(Cl)cc2)=C(CN2CCN(c3ccc(C(=O)NS(=O)(=O)c4ccc(N[C@H](CCN5CCOCC5)CSc5ccccc5)c(S(=O)(=O)C(F)(F)F)c4)cc3)CC2)C1 [Navitoclax] (partner 0.5 µM)
# Outline: as §1
# Daporinad + Lapatinib = compound: O=C(/C=C/c1cccnc1)NCCCCC1CCN(C(=O)c2ccccc2)CC1 [Daporinad] + CS(=O)(=O)CCNCc1ccc(-c2ccc3ncnc(Nc4ccc(OCc5cccc(F)c5)c(Cl)c4)c3c2)o1 [Lapatinib] (partner 2 µM)
# Outline: as §1
cell line,measurement,setting,value
UMC-11,relative viability,R406 + Olaparib; first compound 0.08 µM,0.392
same,relative viability,R406 + Olaparib; first compound 0.253 µM,0.348
same,relative viability,R406 + Olaparib; first compound 0.8 µM,0.342
same,relative viability,R406 + Olaparib; first compound 2.53 µM,0.363
same,relative viability,R406 + Olaparib; first compound 8 µM,0.199
same,relative viability,Daporinad + Palbociclib; first compound 0.0005 µM,0.385
same,relative viability,Daporinad + Palbociclib; first compound 0.001581 µM,0.338
same,relative viability,Daporinad + Palbociclib; first compound 0.005 µM,0.342
same,relative viability,Daporinad + Palbociclib; first compound 0.01581 µM,0.395
same,relative viability,Daporinad + Navitoclax; first compound 0.0005 µM,0.335
same,relative viability,Daporinad + Navitoclax; first compound 0.001581 µM,0.33
same,relative viability,Daporinad + Navitoclax; first compound 0.005 µM,0.377
same,relative viability,Daporinad + Navitoclax; first compound 0.01581 µM,0.288
same,relative viability,Daporinad + Lapatinib; first compound 0.0005 µM,0.995
same,relative viability,Daporinad + Lapatinib; first compound 0.001581 µM,1.06
same,relative viability,Daporinad + Lapatinib; first compound 0.005 µM,1.08
same,relative viability,Daporinad + Lapatinib; first compound 0.01581 µM,1.24
